From patent US4855287A, “Aminoglycoside compounds, processes for production thereof, and pharamaceutical composition containing the same” (Kowa Company, Ltd., priority 1985, dated 1989)
Like-named read-outs stand apart in the source and are kept apart here.

System: Bacillus subtilis ATCC 6633
Assay: Test for antibacterial activity (paper disk, diameter of inhibitory zone, before and after incubation in rat liver/kidney homogenate)
Type: cell-based
Details: 200 mcq/ml, 8 mm paper disk
Method: Each of the test compounds shown in the following table was dissolved in a concentration of 200 mcq/ml in a homogenate of a 10% physiological saline solution of an organ of a rat, and incubated at 37° C. for 2 hours. An enzymatic reaction was stopped by adding an equal amount of ethanol. The antibacterial activity of the test compound before incubation was compared with that after incubation. The incubation was carried out in an equal amount mixture of a liver homogenate and a kidney homogenate. The antibacterial activity was measured by a paper disk having a diameter of 8 mm using Bacillus subtilis ATCC 6633 as a test organism, and shown by the diameter of the resulting inhibitory zone.

[1] = ATCC6633, after incubation at 37° C. for 2 hours in rat liver homogenate and kidney homogenate, read-out: Diameter of the inhibitory zone, after incubation
[2] = ATCC6633, before incubation, read-out: Diameter of the inhibitory zone, before incubation

Row | Structure (SMILES) | zone of inhibition at 200 µg/mL [1] [mm] | zone of inhibition at 200 µg/mL [2] [mm]
1 | CC(N)C1CCC(N)C(OC2C(N)CC(O)C(N(C)C(=O)CNC(=O)[C@@H](N)CC(=O)Oc3ccccc3)C2O)O1 (stereo partly drawn) [Example 11, 2"-N-(β-O-phenyl-L-aspartyl)-5-de-O-methyl-KA-6606I] | 19 | 14
2 | CCCCCCCCCC(=O)NC(CCCCNC(=O)CC[C@H](N)C(=O)NCC(=O)N(C)C1C(O)CC(N)C(OC2OC(C(C)N)CCC2N)C1O)C(=O)OC (stereo partly drawn) [Example 48, 2"-N-{N^γ -[5-(decanoylamino)-5-(methoxycarbonyl)pentyl]-L-glutaminyl}-5-de-O-methyl-KA-6606I] | 18.3 | 18
3 | CCCCCCCCCC(=O)OCC(CCOC(=O)CC[C@H](N)C(=O)NCC(=O)N(C)C1C(O)CC(N)C(OC2OC(C(C)N)CCC2N)C1O)OC(=O)CCCCCCCCC (stereo partly drawn) [Example 22, 2"-N-{γ-[3,4-bis-(decanoyloxy)butyl]-L-glutamyl}-5-de-O-methyl-KA-6606I] | 18.3 | 10.7
4 | CCCCCCCC(=O)NCCCNC(=O)CC[C@H](N)C(=O)NCC(=O)N(C)C1C(O)CC(N)C(OC2OC(C(C)N)CCC2N)C1O (stereo partly drawn) [Example 37, 2"-N-[N^γ -(3-octanoylaminopropyl)-L-glutaminyl]-5-do-O-methyl-KA-6606I] | 25.1 | 14.1
5 | CC(=O)NCCCNC(=O)CC[C@H](N)C(=O)NCC(=O)N(C)C1C(O)CC(N)C(OC2OC(C(C)N)CCC2N)C1O (stereo partly drawn) [Example 34, 2"-N-[N^γ -(3-acetylaminopropyl)-L-glutaminyl]-5-de-O-methyl-KA-66061] | 23.1 | 10.7
6 | CC(N)C1CCC(N)C(OC2C(N)CC(O)C(N(C)C(=O)CNC(=O)[C@@H](N)CCC(=O)NCCCCCCCCO)C2O)O1 (stereo partly drawn) [Example 42, 2"-N-[N^γ -(8-hydroxyoctyl)-L-glutaminyl]-5-de-O-methyl-KA-6606I] | 23 | 15.1
7 | CC(N)C1CCC(N)C(OC2C(N)CC(O)C(N(C)C(=O)CNC(=O)[C@@H](N)CSCc3ccncc3)C2O)O1 (stereo partly drawn) [Example 54, 2"-N-[S-(4-picolyl)-L-cysteinyl]-5-de-O-methyl-KA-6606I] | 25.3 | 14.1
8 | CCCCCCCCCC(=O)OCCCOC(=O)CC[C@H](N)C(=O)NCC(=O)N(C)C1C(O)CC(N)C(OC2OC(C(C)N)CCC2N)C1O (stereo partly drawn) [Example 18, 2"-N-[γ-O-(3-decanoyloxypropyl)-L-glutamyl]-5-de-O-methyl-KA-6606I] | 23.9 | 16.8
9 | CCCCCCCCCCNC(=O)CC[C@H](N)C(=O)NCC(=O)N(C)C1C(O)CC(N)C(OC2OC(C(C)N)CCC2N)C1O (stereo partly drawn) [Example 32, 2"-N-(N^γ -decyl-L-glutaminyl)-5-de-O-methyl-KA-6606I] | 19 | 14.1
10 | CCCCCC(=O)NCCCNC(=O)CC[C@H](N)C(=O)NCC(=O)N(C)C1C(O)CC(N)C(OC2OC(C(C)N)CCC2N)C1O (stereo partly drawn) [Example 36, 2"-N-[N^γ -(3-hexanoylaminopropyl)-L-glutaminyl]-5-de-O-methyl-KA-6606I] | 22.8 | 10.5
11 | CCCC(=O)NCCCNC(=O)CC[C@H](N)C(=O)NCC(=O)N(C)C1C(O)CC(N)C(OC2OC(C(C)N)CCC2N)C1O (stereo partly drawn) [Example 35, 2"-N-[N^γ -(3-n-butyrylaminopropyl)-L-glutaminyl]-5de-O-methyl-KA-6606I] | 20.7 | 10.7
12 | CCCCCCCCCC(=O)OCCOC(=O)CC[C@H](N)C(=O)NCC(=O)N(C)C1C(O)CC(N)C(OC2OC(C(C)N)CCC2N)C1O (stereo partly drawn) [Example 15, 2"-N-[γ-O-(2-decanoyloxyethyl)-L-glutamyl]-5-de-O-methyl-KA-6606I] | 24.4 | 13.9
13 | CCCCCCNC(=O)CNC(=O)CC[C@H](N)C(=O)NCC(=O)N(C)C1C(O)CC(N)C(OC2OC(C(C)N)CCC2N)C1O (stereo partly drawn) [Example 44, 2"-N-[N^γ -(hexylaminocarbonylmethyl)-L-glutaminyl]-5-de-O-methyl-KA-6606I] | 20.2 | 8
14 | CCCCCCCCCCCCCCCCCC(=O)NCCCC[C@H](N)C(=O)NCC(=O)N(C)C1C(O)CC(N)C(OC2OC(C(C)N)CCC2N)C1O (stereo partly drawn) [Example 3, 2"-N-(N^ε -stearoyl-L-lysyl)-5-de-O-methyl-KA-6606I] | 15.5 | 14
15 | CCCCCCCCNC(=O)CC[C@H](N)C(=O)NCC(=O)N(C)C1C(O)CC(N)C(OC2OC(C(C)N)CCC2N)C1O (stereo partly drawn) [Example 31, 2"-N-(N^γ-octyl-L-glutaminyl)-5-de-O-methyl-KA-6606I] | 19 | 15.3
16 | CC(N)C1CCC(N)C(OC2C(N)CC(O)C(N(C)C(=O)CNC(=O)[C@@H](N)CCC(=O)OCCCCOC(=O)c3cccc4ccccc34)C2O)O1 (stereo partly drawn) [Example 21, 2"-N-{γ-O-[4-(α-naphthoyloxy)butyl]-L-glutamyl}-5-de-O-methyl-KA-6606I] | 22.6 | 15.1
17 | CCCCCCCCCC(=O)OCC(COC(=O)CC[C@H](N)C(=O)NCC(=O)N(C)C1C(O)CC(N)C(OC2OC(C(C)N)CCC2N)C1O)OC(=O)CCCCCCCCC (stereo partly drawn) [Example 17, 2"-N-[γ-O-(2,3-bis-decanoyloxypropyl)-L-glutamyl]-5-de-O-methyl-KA-66606I] | 19.7 | 10.6
18 | COC(=O)C[C@H](N)C(=O)NCC(=O)N(C)C1C(O)CC(N)C(OC2OC(C(C)N)CCC2N)C1O (stereo partly drawn) [Example 8, 2"-N-(β-O-methyl-L-aspartyl)-5-de-O-methyl-KA-666I] | 23.9 | 15.9
19 | CC(N)C1CCC(N)C(OC2C(N)CC(O)C(N(C)C(=O)CNC(=O)[C@@H](N)CCC(=O)Nc3cccc4ccccc34)C2O)O1 (stereo partly drawn) [Example 33, 2"-N-[N^γ-(1-naphthyl)-L-glutamin-yl]-de-O-methyl-KA-6606I] | 23.5 | 15.7
20 | CCCCCCCCCC(=O)NCCCNC(=O)CC[C@H](N)C(=O)NCC(=O)N(C)C1C(O)CC(N)C(OC2OC(C(C)N)CCC2N)C1O (stereo partly drawn) [Example 38, 2"-N-[N^γ -(3-decanoylaminopropyl)-L-glutaminyl]-5-de-O-methyl-KA-6606I] | 23.9 | 17.1
21 | CCCCCCCCCC(=O)NCC(=O)NCCCC[C@H](N)C(=O)NCC(=O)N(C)C1C(O)CC(N)C(OC2OC(C(C)N)CCC2N)C1O (stereo partly drawn) [Example 5] | 21 | 15.5
22 | CCCCCCCCCC(=O)NCCCC[C@H](N)C(=O)NCC(=O)N(C)C1C(O)CC(N)C(OC2OC(C(C)N)CCC2N)C1O (stereo partly drawn) [Example 2, 2"-N-(N^ε -decanoyl-L-lysyl)-5-de-O-methyl-KA-6606I] | 22 | 15.9
23 | CCCCCCCCCC(=O)NCCCOC(=O)CC[C@H](N)C(=O)NCC(=O)N(C)C1C(O)CC(N)C(OC2OC(C(C)N)CCC2N)C1O (stereo partly drawn) [Example 28, 2"-N-[γ-O-(3-decanoylaminopropyl)-L-glutamyl]-5-de-O-methyl-KA-6606I] | 23.9 | 14.6
24 | CC(N)C1CCC(N)C(OC2C(N)CC(O)C(N(C)C(=O)CNC(=O)[C@@H](N)CCCCNC(=O)CC[C@@H](C)[C@H]3CC[C@H]4[C@@H]5CC[C@@H]6C[C@H](O)CC[C@]6(C)[C@H]5C[C@H](O)[C@]34C)C2O)O1 (stereo partly drawn) [Example 4, 2"-N-(N^ε -deoxycholyl-L-lysyl)-5-de-O-methyl-KA-6606I] | 19.8 | 12.7
25 | CC(N)C1CCC(N)C(OC2C(N)CC(O)C(N(C)C(=O)CNC(=O)[C@@H](N)CSC(c3ccccc3)c3ccccc3)C2O)O1 (stereo partly drawn) [Example 53, 2"-N-(S-diphenylmethyl-L-cysteinyl)-5-de-O-methyl-KA-6606I] | 24.3 | 16.5
26 | CC(C)OCCCNC(=O)CC[C@H](N)C(=O)NCC(=O)N(C)C1C(O)CC(N)C(OC2OC(C(C)N)CCC2N)C1O (stereo partly drawn) [Example 43, 2"-N-[N^γ -(3-isopropoxypropyl)-L-glutaminyl]-5-de-O-methyl-KA-6606I] | 18.4 | 10.8
27 | CCCCCCCCCCCCCCCCCCCCCCCC(=O)NCCCNC(=O)CC[C@H](N)C(=O)NCC(=O)N(C)C1C(O)CC(N)C(OC2OC(C(C)N)CCC2N)C1O (stereo partly drawn) [Example 41, 2"-N-[N^γ -(3-lignocerolylaminopropyl)-L-glutaminyl]-5-de-O-methyl-KA-6606I] | 14.1 | 8
28 | CCCNC(=O)CC[C@H](N)C(=O)NCC(=O)N(C)C1C(O)CC(N)C(OC2OC(C(C)N)CCC2N)C1O (stereo partly drawn) [Example 29, 2"-N-(N^γ -propyl-L-glutaminyl)-5-de-O-methyl-KA-6606I] | 24.6 | 15.1
29 | CC(N)C1CCC(N)C(OC2C(N)CC(O)C(N(C)C(=O)CNC(=O)[C@@H](N)CCC(=O)OCCCCOC(=O)CC[C@@H](C)[C@H]3CC[C@H]4[C@@H]5CC[C@@H]6C[C@H](O)CC[C@]6(C)[C@H]5C[C@H](O)[C@]34C)C2O)O1 (stereo partly drawn) [Example 26, 2"-N-[γ-O-(4-deoxycholyloxybutyl)-L-glutamyl]-5-de-O-methyl-KA-6606I] | 21.8 | 14.8
30 | CCCCCCCCCCCC(=O)NCCCNC(=O)CC[C@H](N)C(=O)NCC(=O)N(C)C1C(O)CC(N)C(OC2OC(C(C)N)CCC2N)C1O (stereo partly drawn) [Example 39, 2"-N-[N^γ -(3-lauroylaminopropyl)-L-glutaminyl]-5-de-O-methyl-KA-6606I] | 21.2 | 9.8
